What was measured:
[1] = tested on: TrxR in MDA-MB-453 cells; assay: Endogenous TrxR activity in cell lysates (DTNB reduction assay); type: cell-based, human; settings: MDA-MB-453 cells without GSH depletion
[2] = molecular target: T1, TrxR2 (Homo sapiens, UniProt Q9NNW7); assay: Mass spectrometry of immunoprecipitated TrxR2 modified by Iniparib in HCT116 cells; type: cell-based
T1 construct: TrxR1 and TrxR2 were immunoprecipitated from octylglucoside cell extracts (12 mg proteins); endogenous in cells; host or cells: HCT116 (BSO-pretreated)
T1 sequence (Q9NNW7 37-524): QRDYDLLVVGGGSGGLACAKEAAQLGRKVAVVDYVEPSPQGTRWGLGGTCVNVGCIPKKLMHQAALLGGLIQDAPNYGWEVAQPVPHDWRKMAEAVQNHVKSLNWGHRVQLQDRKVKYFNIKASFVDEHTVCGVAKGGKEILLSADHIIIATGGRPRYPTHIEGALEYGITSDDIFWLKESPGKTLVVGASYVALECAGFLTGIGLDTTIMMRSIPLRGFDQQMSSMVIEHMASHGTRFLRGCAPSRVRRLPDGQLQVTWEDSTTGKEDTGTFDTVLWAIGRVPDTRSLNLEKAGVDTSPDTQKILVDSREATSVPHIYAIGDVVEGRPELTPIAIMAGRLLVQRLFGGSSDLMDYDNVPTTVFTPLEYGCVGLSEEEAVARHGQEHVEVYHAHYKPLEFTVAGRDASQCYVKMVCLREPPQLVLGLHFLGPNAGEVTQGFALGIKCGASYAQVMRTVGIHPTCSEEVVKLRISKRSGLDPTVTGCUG
Experimental: After separation by SDS-PAGE under reducing conditions and PageBlue® protein staining (Thermo scientific), bands of interest were excised, reduced with DTT, alkylated with iodoacetamide and in-gel digested with trypsin (Promega), according to the method of Shevchenko et al. (24). Peptides were extracted with 50 mM ammonium bicarbonate and 50% acetonitrile in 0.2% formic acid and analyzed by Nano LC-MS/MS after partial evaporation in a speed-vac concentrator. LC-MS/MS experiments were performed on an NanoAcquity UPLC (Waters) coupled to a hybrid LTQ Orbitrap Velos mass spectrometer (Thermo Fisher Scientific) equipped with a nanoelectrospray source. Tryptic digests were loaded onto a nanoAcquity UPLC Trap column (Symmetry C18, 5 μm, 180 μm×20 mm, Waters) and washed with 0.2% FA at 20 μl/min for 5 min. Peptides were then eluted on a C18 reverse-phase nanoAcquity column (BEH130 C18, 1.7 μm, 75 μm×250 mm, Waters) with a linear gradient of 7-30% solvent B (H2O/CH3CN/HCOOH, 10:90:0.2, by vol.) for 85 min, 30-90% solvent B for 10 min, and 90% solvent B for 5 min, at a flow rate of 250 nL/min. The mass spectrometer was operated in the data-dependent mode to automatically switch between MS and MS/MS acquisition. Survey full scan MS spectra (m/z 300-1,600) were acquired in the Orbitrap with a resolution of 60,000 at m/z 400. The AGC was set to 1×10^6 with a maximum injection time of 100 ms. The most intense ions (up to 20) were then isolated for fragmentation in the LTQ linear ion trap with normalized collision energy of 28% at the default activation q of 0.25 with an AGC of 5×10^3 and a maximum injection time of 200 ms. The dynamic exclusion time window was set to 80 s. […] The exact parent mass is the 12C isotope ion mass of the most intense isotopic pattern detected on the high resolution Orbitrap MS parallel scan and included in the MS/MS selection window. […]

[3] = molecular target: T2, ΔSec human TrxR1 (Homo sapiens, UniProt Q16881); assay: Electron paramagnetic resonance, DEPMPO spin trapping; type: biochemical; settings: ΔSec-TrxR1, absence of auranofin
T2 construct: purchased Abnova

[4] = tested on: Trx1/2 in MDA-MB-231 cells; assay: Trx redox western blot analysis; type: cell-based, human; settings: GSH-depleted MDA-MB-231, 100 μM, 6h, increases further at 18h
Experimental: Quantification is obtained directly from the relative intensities of the different bands. Two forms of the redox Western blot have been developed, separating on the basis of differing charge (thiols are modified with a charged alkylating reagent) or mass (thiols are modified with a high-mass alkylating reagent). Redox analysis of the mitochondrial compartment is performed using a redox Western blot analysis of thioredoxin-2 (Trx2). Trx2 is exclusively found in mitochondria, so an analysis of a cell or tissue extract provides specific information on redox in the mitochondria without fractionation. Analysis is performed following derivatization with AMS. Trx2 contains two cysteine residues, and the addition of two molecules of AMS increases the mass by approximately 1000 Da. Oxidized and AMS derivatized forms are separated by non-reducing SDS polyacrylamide gel electrophoresis and detected by immunoblotting.

[5] = tested on: Trx, JNK, p38MAPK, PARP in HCT116 cells; assay: Cell death signaling western blots (Trx oxidation, phospho-JNK, phospho-p38MAPK, cleaved-PARP)
Experimental: Cells extracts were analyzed by SDS-PAGE either under reducing conditions or under non-reducing conditions in the case of Trx blot followed by blots anti-phospho-JNK, anti-phospho-p38MAPK, anti-cleaved-PARP and anti-Trx. Results are representative of three independent experiments.
After 2 h at 4° C., lysates were clarified by centrifugation and protein amounts were measured using the BCA assay (Pierce, Thermo scientific).
Equal amounts of proteins were resolved by SDS-PAGE under either non-reducing or reducing (5% 2-mercaptoethanol, 20 min at 60° C.) conditions, using 4-20% gels (Novex, Invitrogen), then subjected to semi-dry electrophoretic transfer onto nitrocellulose membranes.

[6] = molecular target: T3, TrxR1 (Homo sapiens, UniProt Q16881); assay: Mass spectrometry of immunoprecipitated TrxR1 modified by Iniparib in HCT116 cells; type: cell-based; parameters: TrxR1 and TrxR2 were immunoprecipitated from octylglucoside cell extracts (12 mg proteins); endogenous in cells; host or cells: HCT116 (BSO-pretreated); settings: for TrxR1 modified on Sec residue: 100 μM, GSH-depleted HCT116
T3 sequence (Q16881 1-499 isoform Q16881-5): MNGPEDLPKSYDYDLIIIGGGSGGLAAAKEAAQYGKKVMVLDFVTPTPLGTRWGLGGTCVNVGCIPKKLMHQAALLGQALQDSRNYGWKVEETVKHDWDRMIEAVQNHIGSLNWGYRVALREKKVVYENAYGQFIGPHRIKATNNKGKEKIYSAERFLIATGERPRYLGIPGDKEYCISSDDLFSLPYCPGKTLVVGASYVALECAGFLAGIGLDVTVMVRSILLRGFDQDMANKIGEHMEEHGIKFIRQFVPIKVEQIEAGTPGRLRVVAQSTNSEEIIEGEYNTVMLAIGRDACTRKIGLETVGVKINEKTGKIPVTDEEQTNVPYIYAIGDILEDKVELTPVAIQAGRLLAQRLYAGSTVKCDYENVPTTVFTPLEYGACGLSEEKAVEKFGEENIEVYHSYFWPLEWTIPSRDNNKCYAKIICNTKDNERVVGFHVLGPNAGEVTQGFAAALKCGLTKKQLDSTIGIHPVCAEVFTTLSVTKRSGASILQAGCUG
Experimental: After separation by SDS-PAGE under reducing conditions and PageBlue® protein staining (Thermo scientific), bands of interest were excised, reduced with DTT, alkylated with iodoacetamide and in-gel digested with trypsin (Promega), according to the method of Shevchenko et al. (24). Peptides were extracted with 50 mM ammonium bicarbonate and 50% acetonitrile in 0.2% formic acid and analyzed by Nano LC-MS/MS after partial evaporation in a speed-vac concentrator. LC-MS/MS experiments were performed on an NanoAcquity UPLC (Waters) coupled to a hybrid LTQ Orbitrap Velos mass spectrometer (Thermo Fisher Scientific) equipped with a nanoelectrospray source. Tryptic digests were loaded onto a nanoAcquity UPLC Trap column (Symmetry C18, 5 μm, 180 μm×20 mm, Waters) and washed with 0.2% FA at 20 μl/min for 5 min. Peptides were then eluted on a C18 reverse-phase nanoAcquity column (BEH130 C18, 1.7 μm, 75 μm×250 mm, Waters) with a linear gradient of 7-30% solvent B (H2O/CH3CN/HCOOH, 10:90:0.2, by vol.) for 85 min, 30-90% solvent B for 10 min, and 90% solvent B for 5 min, at a flow rate of 250 nL/min. The mass spectrometer was operated in the data-dependent mode to automatically switch between MS and MS/MS acquisition. Survey full scan MS spectra (m/z 300-1,600) were acquired in the Orbitrap with a resolution of 60,000 at m/z 400. The AGC was set to 1×10^6 with a maximum injection time of 100 ms. The most intense ions (up to 20) were then isolated for fragmentation in the LTQ linear ion trap with normalized collision energy of 28% at the default activation q of 0.25 with an AGC of 5×10^3 and a maximum injection time of 200 ms. The dynamic exclusion time window was set to 80 s. LC-MS/MS data, acquired using the Xcalibur software (Thermo-Fisher Scientific), were processed using a homemade Visual Basic program software developed using XRawfile libraries (distributed by Thermo-Fisher Scientific) to generate a MS/MS peak list (MGF file) which will be used for database searching. This MGF file contained the exact parent mass and the retention time (RT) associated with each MS/MS spectrum. The exact parent mass is the 12C isotope ion mass of the most intense isotopic pattern detected on the high resolution Orbitrap MS parallel scan and included in the MS/MS selection window. The RT is issued from the LTQ-MS/MS scan. Database searches were done using our internal MASCOT server (version 2.1, matrix Science) using the SwissProt human database. […] The precursor mass tolerance was set to 5 ppm and the fragment ion tolerance was set to 0.5 Da. The number of missed cleavage sites for trypsin was set to 3. Mascot result files (“.dat” files) were imported into Scaffold software. Scaffold (version 3.4.5, Proteome software Inc., Portland, Oreg.) was used to validate MS/MS based peptide and protein identifications. Queries were also used for XTandem parallel Database Search. The compiled results of both database searches were exported.

## NC(=O)c1ccc(I)c([N+](=O)[O-])c1 [Iniparib, 4-iodo-3-nitrobenzamide]
[1]
  TrxR reductase activity: reductase activity inhibition
[2]; 1 h
  TrxR2 with one Iniparib adduct on Sec residue: 5%
[2]; 4 h
  TrxR2 with one Iniparib adduct on Sec residue: 12%
  additional TrxR2 peptide modified on a cysteine residue: < 1%
[3]
  DEPMPO/HOO• adduct signal: increase
  DEPMPO/HO• adduct signal: modest increase
[4]
  Trx oxidation status: accumulation of oxidized Trx
[5]; GSH-depleted HCT116, 100 μM, persisted until 24 h
  JNK activation, time of occurrence: 6 h
[5]; GSH-depleted HCT116, 7 h or 24 h
  p38MAPK and JNK phosphorylation: activation of both p38MAPK and JNK phosphorylation
[5]; GSH-depleted HCT116, 7 h or 24 h, 100 μM Iniparib, 1 μM Auranofin, 100 nM Staurosporin
  Trx oxidation: oligomeric/oxidized form of Trx accumulated
[6]; 1 h
  TrxR1 modified on both adjacent Cys and Sec residues: 0.8%
  TrxR1 modified on Sec residue: 50%
[6]; 4 h
  5 other TrxR1 peptides modified on Cys residues, altogether: less than 7 % of the total protein
  TrxR1 modified on both adjacent Cys and Sec residues: 4.7%
  TrxR1 modified on Sec residue: 67%

From patent publication US20200113852A1, “METHODS OF PATIENT SELECTION AND TREATING TRXR- OR PRDX-OVEREXPRESSED CANCERS” (TRIACT THERAPEUTICS, INC., priority 2017, published 2020)
